Laboratory results as given in article PMC12797497, “Si-Ni-San improves the deposition of lipid droplets in MAFLD through modulating the FXR-GPAT4 axis” (Chinese Medicine, 2026).
Entries after “also recorded” stand apart in the source; their conditions may differ. Each block holds one compound with its values, some of them ahead of it.

Legend:
NASH = test system: NASH; parameters: method as in PMID 38324483; conditions: MAESTRO-NASH Phase III trial; cited from earlier work
FXR protein = target: T1, FXR protein (Homo sapiens, UniProt Q96RI1); experiment: Surface plasmon resonance (SPR), FXR immobilized on CM5 chip; type: binding; conditions: SPR steady-state affinity fit
T1 sequence (Q96RI1 1-486): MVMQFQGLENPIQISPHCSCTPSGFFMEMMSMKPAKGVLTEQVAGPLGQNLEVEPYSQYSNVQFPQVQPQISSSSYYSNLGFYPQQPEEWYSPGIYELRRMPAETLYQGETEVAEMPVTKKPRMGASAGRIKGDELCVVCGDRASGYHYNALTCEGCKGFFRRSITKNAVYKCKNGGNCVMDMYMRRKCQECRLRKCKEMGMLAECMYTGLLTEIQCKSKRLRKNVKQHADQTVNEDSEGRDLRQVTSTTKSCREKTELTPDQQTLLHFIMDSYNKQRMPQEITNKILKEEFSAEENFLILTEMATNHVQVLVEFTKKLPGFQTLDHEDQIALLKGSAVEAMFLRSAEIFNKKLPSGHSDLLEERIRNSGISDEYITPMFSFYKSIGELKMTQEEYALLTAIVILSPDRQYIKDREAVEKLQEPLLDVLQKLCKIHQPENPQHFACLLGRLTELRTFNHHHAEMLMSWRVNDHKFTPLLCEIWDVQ
Method: SPR analysis was performed by a Biacore S200 system (Cytiva, USA) equipped with a CM5 sensor chip. The FXR protein was immobilized on the chip via the standard amine coupling protocol, with the protein dissolved in a sodium acetate buffer at pH 4.5 and a concentration of 10 mM. […] Equilibrium dissociation constants (KD) were determined by fitting the response curves using the steady-state affinity model available in the Biacore S200 Evaluation Software.

[1] = test system: T2DM and high-risk obese individuals; conditions: cited from earlier work
MAFLD mice = experiment: HFD-induced MAFLD mouse model: body/liver weight, histology, serum biochemistry, hepatic TBA; type: in vivo, C57BL/6N mice; conditions: SNS 5.2 g/kg/d or OCA 10 mg/kg/d orally for 2 weeks
Excerpt: (§1) A standard diet was fed to the NC group, while HFD (D12451, Huanyu Hekang Biotechnology, China) was fed to the other four groups for 12 weeks. […] During this period, mice in the NC group and HFD group were given isovolumetric distilled water respectively.
Serum samples were collected to measure the content of TG, total cholesterol (TC), alanine aminotransferase (ALT), aspartate aminotransferase (AST), high-density lipoprotein cholesterol (HDL-C), and low-density lipoprotein cholesterol (LDL-C). The Reado/Changchun Huili kit was used for the assay, measured by a fully automatic biochemistry analyzer.
The TBA content in liver tissue was detected by a TBA assay kit (E003-2-1, Nanjing Jiancheng Bioengineering Institute, China). According to the kit instruction manual, the liver tissues were subjected to lysis, after which the supernatant was collected and added to a 96-well plate. Blank controls and standard controls were set up. Subsequently, 180 μL of Reagent 1 was added, followed by gentle shaking to mix thoroughly, and incubation at 37 °C for 5 min. After that, 60 μL of Reagent 2 was added, mixed well by gentle shaking, and incubated at 37 °C for 1 min. The absorbance (A0) was measured at a wavelength of 405 nm using a microplate reader. Another incubation at 37 °C for 3 min was conducted, and then the absorbance (A1) was measured again. The ΔA value was calculated as ΔA = A1−A0, which represents the TBA content in the liver tissues.
Liver tissue from each group of mice was fixed in 4% formalin, embedded in paraffin, and prepared as paraffin tissue sections with a thickness of 5 μm. The sections were dewaxed and rehydrated, subsequently subjected to H&E staining, and finally examined under a microscope (Leica DM2500, Germany) for the observation of LDs.
Lipid accumulation in vivo was assessed by oil red O (ORO) staining (G1261, Solarbio, China). For liver tissue, frozen tissue sections were prepared at a thickness of 10 μm. After fixation in formalin, the sections were washed in 60% isopropanol and then stained with freshly prepared ORO working solution for 15 min. Following rinsing with 60% isopropanol, the sections were examined under a microscope.

FXR [2] = experiment: FXR protein expression in liver and colon of MAFLD mice (western blot, IHC); type: in vivo, C57BL/6N mice
Method: as §1
(§2) Total protein was extracted using a protein extraction kit (PC201Plus, Epizyme). Then, the protein concentration was measured using a BCA kit (PC0020, Solarbio). The 50 μg of the total protein samples were loaded onto an SDS-PAGE gel. Following electrophoresis, the protein was transferred into polyvinylidene fluoride (PVDF) membranes. Whereafter, the membranes were first blocked with 5% nonfat dry milk in TBST and incubated with primary antibodies against FXR (bs-12867R, Bioss, 1:1000), GPAT4 (bs-15587R, Bioss, China, 1:1000), P62 (380612-50, Zenbio, China, 1:1000), HSL (344379-50, Zenbio, China, 1:1000), MAGL (PAD223Hu01, Cloud-Clone Corp, China, 1:1000), Beclin1 (BS-1353R, Bioss, China, 1:1000), ATGL (R389129-50, Bioss, China, 1:1000), LC3Ⅰ/Ⅱ (ABC929, Merck, USA, 1:1000), β-actin (bs-0061R, Bioss, China, 1:5000) and GAPDH (GB11002-100, Servicebio, China, 1:5000). After 12 h of incubation at 4 °C, the blots were proceeded with HRP-conjugated secondary antibody. Finally, the immune bands were detected using an ECL detection kit (sb-wb012, Shanghai Shenger Biotechnology Co., Ltd, China). The average gray value was quantified using Image J software.
The paraffin sections of liver were performed dewaxing followed by antigen retrieval, then add FXR primary antibody (bs-12867R, Bioss, 1:200) and GPAT4 primary antibody (bs-1924R, Bioss, 1:200), and incubate overnight at 4 °C. After the diaminobenzidine (DAB) enhanced staining, the sections were mounted with neutral gum. Finally, the images were observed and captured via a Leica DM4000B light microscope (Germany).

GPAT4 [3] = experiment: GPAT4 protein expression in liver of MAFLD mice (western blot, IHC); type: in vivo, C57BL/6N mice; conditions: vs HFD group
Method: as §1
as §2, with “After 12 h of incubation at 4 °C, the blots were proceeded with HRP-conjugated secondary antibody.” left out, “software. […]” for “software.”

LDAH = LDAH protein level in liver of MAFLD mice (western blot); type: in vivo, C57BL/6N mice; conditions: vs HFD group
[4] = test system: HSL, ATGL, MAGL, P62, Beclin1, LC3Ⅰ/Ⅱ; experiment: Lipolysis- and lipophagy-related protein expression in liver of MAFLD mice (western blot); type: in vivo, C57BL/6N mice; conditions: vs HFD group
Method: as §1, §2

[5] = test system: oleic acid-induced HepG2 cells; experiment: ORO staining of lipid droplets in oleic acid-induced HepG2 cells; type: cell-based, human; conditions: HepG2, OA 24 h; 15% SNS-containing serum vs NS serum, or OCA 1 μM
Method: (§3) The HepG2 cell line was purchased from the American Type Culture Collection (Manassas, USA) and cultured in RPMI 1640 medium (Solarbio, China) with 10% fetal bovine serum (Gibco, USA) in an atmosphere with 5% CO2 and 100% humidity at 37 ℃. Oleic acid (OA) was purchased from Shanghai Macklin Biochemical Co., Ltd. (C11391320, Macklin, China). […] Cells were inoculated into 6-well plates and 96-well plates and treated with OA solution and SNS/NS-containing serum for 24 h.
In vitro, the HepG2 cell cells were firstly seeded in 6-well plates (3 × 10^5 cells/well). After the cells were washed with PBS, ORO fixative was added to each well for 20–30 min, and 60% isopropyl alcohol was added to each well for 5 min. Then, ORO staining solution was used to stain the cells for 10–20 min. After the cells were washed with PBS, hematoxylin staining solution was used to re-stain the nucleus. Then, we added ORO buffer for 1 min. Finally, we used glycerin gelatin to seal the tablets. The changes in LDs were measured with Image Pro Plus v6.0 software (Media Cybemetic, USA).

FXR [6] = experiment: FXR expression in oleic acid-induced HepG2 cells (western blot); type: cell-based, human; conditions: HepG2, OA 24 h; 15% SNS-containing serum or OCA 1 μM
Method: as §3
(§4) Total protein was extracted using a protein extraction kit (PC201Plus, Epizyme). Then, the protein concentration was measured using a BCA kit (PC0020, Solarbio). The 50 μg of the total protein samples were loaded onto an SDS-PAGE gel. Following electrophoresis, the protein was transferred into polyvinylidene fluoride (PVDF) membranes. […] Finally, the immune bands were detected using an ECL detection kit (sb-wb012, Shanghai Shenger Biotechnology Co., Ltd, China). The average gray value was quantified using Image J software.

GPAT4 [7] = experiment: GPAT4 expression in oleic acid-induced HepG2 cells (western blot); type: cell-based, human; conditions: HepG2, OA 24 h; 15% SNS-containing serum or OCA 1 μM
Method: as §3, §4

Compound: CC(C)c1cc(Oc2c(Cl)cc(-n3nc(C#N)c(=O)[nH]c3=O)cc2Cl)n[nH]c1=O [Resmetirom]
LDL-C decrease (NASH): 13–16% | NASH resolution (NASH): 26–30% | fibrosis improvement (NASH): 24–26% | tolerability / adverse events (NASH): well-tolerated, with primarily mild diarrhea and nausea, and a serious adverse event rate comparable to placebo

Compound: COc1cc(-c2oc3cc(O)cc(O)c3c(=O)c2O)ccc1O [Isorhamnetin]
Rmax (FXR protein): 20.3 RU

Compound: Semaglutide
reduction in major adverse cardiovascular events ([1]; SUSTAIN 6 and SELECT, T2DM and high-risk obese individuals): 18–20% | weight loss [1]: at least 10% | safety profile ([1]; human, in vivo): common gastrointestinal reactions and infrequent serious adverse events

Compound: COc1ccc([C@@H]2CC(=O)c3c(O)cc(O[C@@H]4O[C@H](CO[C@@H]5O[C@@H](C)[C@H](O)[C@@H](O)[C@H]5O)[C@@H](O)[C@H](O)[C@H]4O)cc3O2)cc1O [Hesperidin]
Rmax (FXR protein): 49.9 RU

Compound: CC[C@H]1[C@@H](O)[C@@H]2[C@H](CC[C@]3(C)[C@@H]([C@H](C)CCC(=O)O)CC[C@@H]23)[C@@]2(C)CC[C@@H](O)C[C@@H]12 [OCA, Obeticholic acid]
Rmax (FXR protein): 32.0 RU | liver coefficient (liver weight/body weight) (MAFLD mice): restored to normal levels | body weight at week 12 (MAFLD mice; vs HFD group): significantly decreased body weight | hepatic TBA level (MAFLD mice; vs HFD group): reduced TBA levels | liver LDs deposition (H&E and ORO staining) (MAFLD mice; vs HFD group): significantly reduced LDs compared to the HFD group | liver weight (MAFLD mice; vs HFD group): significant reduction in liver weights | serum ALT (MAFLD mice; vs HFD group): effectively reduced liver injury induced by HFD | serum AST (MAFLD mice; vs HFD group): effectively reduced liver injury induced by HFD | serum LDL-C (MAFLD mice; vs HFD group): reduced following SNS and OCA treatment | serum TC (MAFLD mice; vs HFD group): reduced following SNS and OCA treatment | serum TG (MAFLD mice; vs HFD group): reduced following SNS and OCA treatment | positive localization of FXR in liver tissues (FXR [2]; IHC, liver): increased the positive localization of FXR in liver tissues | FXR expression in the colon (FXR [2]; western blot, colon, vs HFD group): elevated colonic FXR expression | hepatic FXR expression (FXR [2]; western blot, liver, vs HFD group): activated its expression; also recorded: activated FXR | positive localization of GPAT4 in liver tissues (GPAT4 [3]; IHC): reduced the positive localization of GPAT4 in liver tissues | GPAT4 expression in liver (GPAT4 [3]; western blot): inhibited GPAT4 expressions | protein level of LDAH (LDAH): downregulated LDAH | ATGL expression [4]: increased HSL and ATGL expression | Beclin1 expression [4]: activated Beclin1 | HSL expression [4]: increased HSL and ATGL expression | MAGL expression [4]: decreased MAGL expression | P62 expression [4]: suppressed P62 expression | intracellular LDs accumulation (ORO staining) [5]: reduced LDs deposition in cells | FXR expression in cells (FXR [6]): increased FXR expression | GPAT4 expression in cells (GPAT4 [7]): inhibited GPAT4 expression in cells

The remaining lines, values ahead:

Rmax (FXR protein): 12.1 RU
Compound: O=C1C[C@@H](c2ccc(O[C@@H]3O[C@H](CO)[C@@H](O)[C@H](O)[C@H]3O)cc2)Oc2cc(O)ccc21 [Liquiritin]

Rmax (FXR protein): 181.5 RU
Compound: COc1ccc([C@@H]2CC(=O)c3c(O)cc(O[C@@H]4O[C@H](CO)[C@@H](O)[C@H](O)[C@H]4O[C@@H]4O[C@@H](C)[C@H](O)[C@@H](O)[C@H]4O)cc3O2)cc1O [Neohesperidin]

Rmax (FXR protein): 210.1 RU
Compound: COc1ccc(-c2cc(=O)c3c(OC)c(OC)c(OC)c(OC)c3o2)cc1OC [Nobiletin]
